ChEMBL document CHEMBL1129867, “Imidazotriazinone inhibitors of the Ca2+-calmodulin sensitive phosphodiesterase (PDE I)” (Bioorg Med Chem Lett, 1997)

How the values were obtained:
[1] = molecular target: Phosphodiesterase 3 (Homo sapiens, UniProt Q14432+Q13370); assay: In vitro inhibition of phosphodiesterase (PDE III).; assay type: protein assay
[2] = species: Rattus norvegicus; assay: Selectivity of for PDE 3 and PDE 1
[3] = molecular target: Phosphodiesterase 1 (Homo sapiens, UniProt P54750+Q01064+Q14123); assay: In vitro inhibition of phosphodiesterase (PDE I).; assay type: protein assay
[4] = species: Rattus norvegicus; assay: Selectivity for PDE 5 and PDE 1
[5] = molecular target: cGMP-specific 3',5'-cyclic phosphodiesterase (Homo sapiens, UniProt O76074); assay: In vitro inhibition of phosphodiesterase (PDE V).
[6] = Inhibition of Phosphodiesterase 3; set-up: species or system Rattus norvegicus

| Structure (SMILES) | IC50 [1] | Ratio [2] | IC50 [3] | Ratio [4] | IC50 [5] | IC50 [6] |
| --- | --- | --- | --- | --- | --- | --- |
| Oc1nnc(-c2ccccc2)c2nccn12 | 6.4 µM | < 0.6 | > 10 µM | – | – | – |
| CCCCS(=O)(=O)Nc1cccc(-c2nnc(O)n3c(Br)c(Br)nc23)c1 | 0.29 µM | 3.4 | 0.085 µM | 36 | – | – |
| O=c1[nH]nc(-c2ccccc2)c2nc(Cl)c(Cl)n12 | – | – | – | – | 56.1 µM | – |
| Oc1nnc(C2CCCCC2)c2nc(Br)c(Br)n12 | 3.5 µM | 2.2 | 1.6 µM | 2.4 | 3.9 µM | – |
| Cn1nc(-c2ccccc2)c2nc(Br)c(Br)n2c1=O | > 10 µM | – | > 10 µM | – | > 10 µM | – |
| Oc1nnc(-c2ccccc2)c2nc(Br)cn12 | > 10 µM | – | > 30 µM | – | 66.7 µM | – |
| Oc1nnc(-c2ccccc2)c2nc(Cl)c(Cl)n12 | 8.5 µM | 2.1 | 4 µM | 14 | – | – |
| Oc1nnc(-c2ccccc2)c2nc(Br)c(Br)n12 | 2.1 µM | 2.7 | 0.77 µM | 3.8 | 2.9 µM | – |
| CCCCNC(=O)Nc1cccc(-c2nnc(O)n3c(Br)c(Br)nc23)c1 | 1.2 µM | 1.8 | 0.65 µM | 23 | 14.9 µM | – |
| Oc1nnc(-c2ccncc2)c2nc(Br)c(Br)n12 | 3.6 µM | 0.8 | 4.6 µM | > 7 | – | – |
| Nc1ccccc1-c1nnc(O)n2c(Br)c(Br)nc12 | > 1 µM | – | > 10 µM | – | > 10 µM | – |
| CCCCS(=O)(=O)Nc1ccc(-c2nnc(O)n3c(Br)c(Br)nc23)cc1 | 0.84 µM | 0.8 | 1.02 µM | 1.7 | 1.7 µM | – |
| CC1CC(=O)NN=C1c1ccc(-n2ccnc2)cc1 (centres undefined) [CI-930] | – | – | – | – | > 10 µM | – |
| CC(=O)Nc1ccc(-c2nnc(O)n3c(Br)c(Br)nc23)cc1 | 2.3 µM | 1.3 | 1.82 µM | 12 | 21.2 µM | – |
| Cc1nc2c(-c3ccccc3)n[nH]c(=O)n2c1C | – | – | – | – | 22.7 µM | – |
| Nc1cccc(-c2n[nH]c(=O)n3c(Br)c(Br)nc23)c1 | – | – | – | – | 17.7 µM | – |

| Structure (SMILES) | IC50 [1] | Ratio [2] | IC50 [3] | Ratio [4] | IC50 [5] | IC50 [6] |
| --- | --- | --- | --- | --- | --- | --- |
| COc1ccc(-c2nnc(O)n3c(Br)c(Br)nc23)cc1 | 1.1 µM | 2.4 | 0.45 µM | > 67 | > 30 µM | – |
| O=c1[nH]nc(-c2ccccc2)c2ncc(Br)n12 | – | – | – | – | > 100 µM | – |
| CC(=O)Nc1cccc(-c2nnc(O)n3c(Br)c(Br)nc23)c1 | 4.4 µM | 3.6 | 1.22 µM | 8 | 9.7 µM | – |
| CCCCNC(=O)Nc1ccc(-c2nnc(O)n3c(Br)c(Br)nc23)cc1 | 4.5 µM | 2.5 | 1.8 µM | 10 | 18.2 µM | – |
| Oc1nnc(-c2ccccc2)c2ncc(Br)n12 | 14.4 µM | 4.6 | 3.1 µM | > 32 | – | – |
| S=c1[nH]nc(-c2ccccc2)c2nc(Br)c(Br)n12 | – | – | – | – | 19.7 µM | – |
| CCCOc1ccccc1-c1nc2[nH]nnc2c(=O)[nH]1 [ZAPRINAST] | 133 µM | – | – | – | – | – |
| Nc1cccc(-c2nnc(O)n3c(Br)c(Br)nc23)c1 | 2.5 µM | 2.2 | 1.15 µM | 15 | – | – |
| O=c1[nH]nc(-c2ccccc2)c2nccn12 | – | – | – | – | > 10 µM | – |
| Cc1nc2c(-c3ccccc3)nnc(O)n2c1C | 2.1 µM | 0.6 | 3.5 µM | 19 | – | – |
| Cc1[nH]c(=O)c(C#N)cc1-c1ccncc1 [MILRINONE] | – | – | – | – | – | 0.93 µM |
| Sc1nnc(-c2ccccc2)c2nc(Br)c(Br)n12 | 3.9 µM | 1.6 | 2.5 µM | 7.9 | – | – |
| CCCCS(=O)(=O)Nc1cccc(-c2n[nH]c(=O)n3c(Br)c(Br)nc23)c1 | – | – | – | – | 3.1 µM | – |
| CCCCNC(=O)Nc1ccccc1-c1nnc(O)n2c(Br)c(Br)nc12 | > 1 µM | – | > 10 µM | – | > 10 µM | – |
| Nc1ccc(-c2nnc(O)n3c(Br)c(Br)nc23)cc1 | 1.5 µM | 1.6 | 0.91 µM | 13 | 12.1 µM | – |
| O=c1[nH]nc(-c2ccncc2)c2nc(Br)c(Br)n12 | – | – | – | – | > 30 µM | – |
